Experimental data as given in patent US10294273B2, “Macrocyclic peptidomimetics for alpha-helix mimicry” (UNIVERSITY OF ROCHESTER, priority 2014, dated 2019).

How the values were obtained:
[1] = Circular dichroism analysis of α-helicity; details: 5 mM potassium phosphate pH 7.0, 40% trifluoroethanol
Procedure: The alpha helical content of the macrocyclic peptidomimetic molecules and reference non-macrocyclic compounds disclosed herein can be determined by Circular Dichroism (CD) spectroscopy.
CD spectra were recorded with a JASCO J-710 CD spectropolarimeter using a 0.1 cm path length cuvette at room temperature. The purified peptides were dissolved in 5 mM potassium phosphate buffer (pH 7.0) containing 40% trifluoroethanol to a final concentration of 20-50 μM. […] The bandwidth was set to 2.0 nm and the sensitivity of the spectrometer set to 100 mdeg.

[2] = molecular target: chymotrypsin (Bos taurus, UniProt P00766); test: Proteolytic stability in the presence of chymotrypsin (HPLC); details: chymotrypsin 1.0 μg/mL, peptide 10 μM
Procedure: This property can be assessed by incubating the macrocyclic peptidomimetic molecules and the corresponding reference non-macrocyclic polypeptides in the presence of purified proteases or, alternatively, human blood serum. The in vitro proteolytic degradation of the compounds can be then monitored over time by HPLC equipped with a UV detector. From the resulting time-dependent curves, the half-life of the compounds can be measured. As an example, the in vitro proteolytic stability of macrocycles was measured by incubating the compound (10 μM) in 50 mM potassium phosphate buffer (pH 7.5) in the presence of chymotrypsin (1.0 μg/mL) at room temperature. At different time points (e.g. 0, 30, 60, 120, 180, 240 min), an aliquot of the reaction mixture (50 μL) was removed, quenched addition of TFA (5 μL) followed by HPLC analysis. Peptide cleavage was monitored based on the decrease of the peak area corresponding to the integer peptide.
Each peptide (10 μM) was dissolved in 50 mM potassium phosphate buffer (pH 7.5) containing 150 mM NaCl and 10% DMSO. Chymotrypsin (Sigma-Aldrich) was added to a final concentration of 1.0 μg/mL and incubated at room temperature. At each time point, a 50 μL aliquot of the mixture was removed, quenched by TFA addition (5 μL) followed by HPLC analysis. Peptide cleavage was monitored based on the decrease of the peak area corresponding to the integer peptide. […]

[3] = tested on: SJSA-1 cells; test: Cell viability (MTT) assay in SJSA-1 osteosarcoma cells; format: cell-based, human; details: overnight treatment
Procedure: The cytotoxic activity of the macrocyclic peptidomimetic molecules is determined, for example, in cell-based assays using tumorigenic and non-tumorigenic cell lines and primary cells derived from human or mouse cell populations. […]. Such assays can be used to assess the efficacy of the macrocyclic peptidomimetic molecules to reduce the viability of tumorigenic and non-tumorigenic cells. In addition, assays that measure Annexin V and caspase activation can be optionally used to assess whether the cytotoxicity of the macrocyclic peptidomimetic molecules is dependent upon activation of the apoptotic machinery, which is expected to result from reactivation of p53 activity.
Similar results were obtained for other p53 macrocyclic peptidomimetic molecules described in FIG. 10, resulting in LD50 in the low micromolar range.
Cultured SJSA-1 cells were maintained in the RPMI-1640 medium supplemented with 10% fetal bovine serum. For viability evaluation cells were seated in 96-well, tissue culture treated plates (2×10^4 cells/well) and incubated overnight. […] The cells were treated overnight and the viability was assessed by a standard MTT (3-(4,5-dimethylthiazol-2-yl)-2,5-diphenyltetrazolium bromide) assay. The viability is expressed as percentage of viability of the non-treated cells.

[4] = tested on: HEK-293 cells; test: Cell penetration by confocal fluorescence microscopy; format: cell-based, human; details: fluorescein-conjugated compound, 20 μM, 2 h
Procedure: In some embodiments, the macrocyclic peptidomimetics described herein are more cell permeable than a corresponding non-macrocyclic counterpart. […] To measure the cell permeability of these compounds, intact cells are incubated with fluorescently labeled (e.g. fluorescein-conjugated) macrocyclic peptidomimetic molecule or corresponding non-macrocyclic counterpart (10 μM) for 4 hrs in serum free media at 37° C. Cells are then washed twice with media, incubated with trypsin (e.g. 0.25% trypsin, 10 min, 37° C.), then washed again and resuspended in PBS. Cellular fluorescence is analyzed, for example, by using a FACSCalibur flow cytometer. Alternatively, the ability of the fluorescently labelled compound to penetrate cells can be assessed by confocal fluorescence microscopy.
Similar results were obtained for other p53 macrocyclic peptidomimetic molecules described in FIG. 10.
The cell permeability properties of the macrocyclic peptidomimetics and reference linear peptides were assessed using HEK-293 cell line. These cells were cultured in the DMEM medium supplemented with 10% fetal bovine serum and penicillin/streptomycin. For the cell permeability evaluations, cells were seated overnight (1×10^4 cells/well) in 24-well tissue culture treated plates with glass bottom. […]

[5] = tested on: p53(15-29)-HDMX interaction; test: HDMX IC50 (nM)
Excerpt: (§1) Table printed on a drawing sheet, FIG. 10
Head of the field: HDMX IC50 (nM)
(§2) The patent's description of the figure: FIG. 10. Amino acid sequence, structure, and inhibitory activity of selected p53 macrocyclic peptidomimetics and reference linear peptides. The inhibitory activities refer to IC50 values for disruption of p53(15-29)-HDM2 interaction or p53(15-29)-HDMX interaction as determined using a Surface Plasmon Resonance-based inhibition assay.
(§3) First copying reader's note: In cyclic peptides the linker name (SP4, SP6, SP8, SP9) is printed above the sequence inside a bracket running from the pAcF/mAcF residue to the C-terminus; it is given here before the sequence.
(§4) Where the first naming reader finds the target: description_of_the_figure: IC50 values for disruption of p53(15-29)-HDM2 interaction or p53(15-29)-HDMX interaction

[6] = tested on: p53(15-29)-HDM2 interaction; test: HDM2 IC50 (nM)
Excerpt: as §1
Head of the field: HDM2 IC50 (nM)
as §2, §3, §4

[7] = molecular target: T1, HDMX (Homo sapiens, UniProt O15151); test: SPR inhibition assay, disruption of p53(15-29)-HDMX interaction; format: binding; details: selectivity ratio between the two protein homologs
T1 construct: His tag (C); made in house; host or cells: E. coli BL21(DE3)
T1 sequence (O15151 1-109): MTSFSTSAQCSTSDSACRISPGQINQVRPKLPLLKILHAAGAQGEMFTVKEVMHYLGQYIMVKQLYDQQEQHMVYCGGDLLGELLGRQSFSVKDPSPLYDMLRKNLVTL
Excerpt: The ability of the macrocyclic peptidomimetic molecules to bind a protein of interest and disrupt a target protein-protein interaction can be assessed, for example, via in vitro surface plasmon resonance (SPR)-based inhibition assays. For example, the ability of these compounds to inhibit the interaction of p53 with oncoprotein HDM2 and HDMX can be measured via an in-solution inhibition assay, in which a biotinylated p53-derived peptide (e.g., biotin-SGSG-p5315-29) is first immobilized on a streptavidin-coated biosensor chip. Soluble HDM2 (or HDMX) is then incubated with varying concentrations of the macrocycle and the mixture is then injected over the functionalized surface. With increasing concentrations of the inhibitor, binding of HDM2 (or HDMX) to the surface is inhibited, leading to a decrease in biosensor response. The response-concentration curves can be then analyzed to measure the inhibitory activity of the compounds in terms of half-maximal inhibitory concentration (IC50).
Briefly, biotin-conjugated […] peptide was first immobilized on a streptavidin-coated biosensor chip and increasing concentrations of the inhibitors were added to a fixed concentration of HDM2 or HDMX. From the corresponding dose-response curves (FIGS. 12A-12B), half-maximal inhibitory concentrations (IC50) were determined for the compounds as summarized in FIG. 10. […]

Compound	α-helical content [1]	survival of incubation with the protease, up to [2]	viability of SJSA-1 cells upon treatment [3]	IC50 [5] [nM]	IC50 [6] [nM]	other results
CC1=NOCc2cn(nn2)Cc2ccc(CSCC(N)=O)c(c2)NC(=O)[C@H](C)NC(=O)[C@H](CC(C)C)NC(=O)[C@H](CC(C)C)NC(=O)[C@H](CC(N)=O)NC(=O)[C@H](Cc2c[nH]c3ccccc23)NC(=O)[C@H](Cc2ccc(O)cc2)NC(=O)[C@H](CCC(=O)O)NC(=O)[C@H](C)NC(=O)[C@H](Cc2ccccc2)NC(=O)[C@H](CO)NC(=O)[C@@H](NC(=O)CN)Cc2ccc1cc2 [P7]	40%	up to 3 hour	–	–	–	–
CC1=NOCCCNC(=O)c2ccc(CSCC(N)=O)c(c2)NC(=O)[C@H](C)NC(=O)[C@H](CC(C)C)NC(=O)[C@H](CC(C)C)NC(=O)[C@H](CC(N)=O)NC(=O)[C@H](Cc2c[nH]c3ccccc23)NC(=O)[C@H](Cc2ccc(O)cc2)NC(=O)[C@H](CCC(=O)O)NC(=O)[C@H](C)NC(=O)[C@H](Cc2ccccc2)NC(=O)[C@H](CO)NC(=O)[C@@H](NC(=O)CN)Cc2ccc1cc2 [P8]	21%	≤ 4 h	a reduction of cell viability	–	–	cellular uptake (confocal fluorescence microscopy) [4]: diffuse fluorescence at the intracellular level
CC1=NOCc2ccc(CS)c(c2)NC(=O)[C@H](C)NC(=O)[C@H](CC(C)C)NC(=O)[C@H](CC(C)C)NC(=O)[C@H](CC(N)=O)NC(=O)[C@H](Cc2c[nH]c3ccccc23)NC(=O)[C@H](Cc2ccc(O)cc2)NC(=O)[C@H](CCC(=O)O)NC(=O)[C@H](C)NC(=O)[C@H](Cc2ccccc2)NC(=O)[C@H](CO)NC(=O)[C@@H](NC(=O)CN)Cc2ccc1cc2 [P9]	–	–	–	> 50000	> 50000	–
COc1ccc(C2=N[C@@H](c3ccc(Cl)cc3)[C@@H](c3ccc(Cl)cc3)N2C(=O)N2CCNC(=O)C2)c(OC(C)C)c1 [nutlin-3]	–	–	responsiveness of the cells to p53-HDM2 inhibition was confirmed	–	–	–
P6: unconstrained reference linear peptide (SEQ ID NO. 44), acyclic counterpart of P7 and P8 (GYSFAEYWNLLA; Engineered Sequence)	–	–	–	355	65	–
P6: unconstrained reference linear peptide (SEQ ID NO. 44), acyclic counterpart of P7 and P8 (GYSFAEYWNLLA; Engineered Sequence) [reference compound]	about 31%	–	–	–	–	IC50(HDMX)/IC50(HDM2) [7]: 5.5
